Source: PubChem BioAssay (NCI)
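In this assay, cells in 96-well plates receive the compound at five concentrations for 48 hours. Endpoints are linearly interpolated between the surrounding concentrations. The concentration for 50% growth inhibition is given as GI50. The concentration for full growth arrest is given as TGI.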

Experiments:
Test in all cases: NCI-60 cell line screen, 48 h
[1] = system: M14 melanoma
[2] = system: OVCAR-3 ovarian
[3] = system: UACC-62 melanoma
[4] = system: BT-549 breast
[5] = system: LOX IMVI melanoma
[6] = system: SR leukemia
[7] = system: NCI-H460 lung
[8] = system: MALME-3M melanoma
[9] = system: KM12 colon
[10] = system: HL-60(TB) leukemia

Compound	GI50 [1]	TGI [1]	GI50 [2]	TGI [2]	GI50 [3]	TGI [3]	GI50 [4]	TGI [4]	GI50 [5]	TGI [5]	GI50 [6]	TGI [6]	GI50 [7]	TGI [7]	GI50 [8]	TGI [8]	GI50 [9]	TGI [9]	GI50 [10]	TGI [10]
COc1ccc(Nc2ncccc2/C=C/C(=O)c2cc(OC)c(OC)c(OC)c2)cc1	1.65 µM	3.16 µM	1.64 µM	2.99 µM	1.56 µM	3.3 µM	1.58 µM	3.08 µM	1.23 µM	2.48 µM	0.464 µM	3.98 µM	2.01 µM	4.25 µM	1.4 µM	2.87 µM	1.69 µM	3.22 µM		
Nc1ccc(-c2nc3ccccc3[nH]2)c(O)c1	30.4 µM	> 100 µM	40.4 µM	> 100 µM	25.2 µM	95.5 µM	50.9 µM	> 100 µM	40.8 µM	> 100 µM	26.2 µM	> 100 µM	30.4 µM	> 100 µM			17.9 µM	57.4 µM	40.4 µM	> 100 µM
CC(=NCCN(CCN=C(C)c1c(O)cc(C)oc1=O)CCN=C(C)c1c(O)cc(C)oc1=O)c1c(O)cc(C)oc1=O		> 100 µM										> 100 µM		> 100 µM				> 100 µM		> 100 µM
OCCN(CCO)c1cccc(N(CCO)CCO)c1		> 100 µM		> 100 µM		> 100 µM				> 100 µM		> 100 µM		> 100 µM				> 100 µM		> 100 µM
Nc1c(C(=O)c2cccc(-c3ccc[n+]([O-])c3)c2)cnn1-c1ccc(F)cc1F	> 25 µM	> 25 µM	> 25 µM	> 25 µM	> 25 µM	> 25 µM	> 25 µM	> 25 µM	> 25 µM	> 25 µM	17.8 µM	> 25 µM	> 25 µM	> 25 µM	> 25 µM	> 25 µM	> 25 µM	> 25 µM	> 25 µM	> 25 µM
COc1ccccc1/C=C1\CCC(CNc2ccc(Cl)cc2)C1=O (stereo not given)		9.72 µM		22.9 µM		3.48 µM				9.22 µM		26.5 µM		20.9 µM		28.4 µM		10 µM		13.9 µM
COc1ccc(-c2nsc3c2NC(=O)CC3c2ccc3c(c2)OCO3)cc1 (stereo not given)	0.715 µM	> 100 µM	0.874 µM	10.4 µM	1.21 µM	> 100 µM	2.54 µM	> 100 µM			0.401 µM	39.3 µM	0.498 µM	> 100 µM	0.77 µM	> 100 µM	0.645 µM	> 100 µM	0.579 µM	8.32 µM
Cn1cc(NC(=O)c2cc(NC(=O)Nc3cc(C(=O)Nc4cc(C(=O)NCCC(=N)N)n(C)c4)n(C)c3)cn2C)cc1C(=O)NCCC(=N)N		57.2 µM		> 100 µM		53.2 µM				70.1 µM		> 100 µM		55.3 µM		> 100 µM		36.8 µM		> 100 µM
